The conditions of the series: 101.33 kPa, Liquid; for speed of sound: Single path-length method; for mass density: Vibrating tube method.

Numbers after ± are expanded uncertainties.

This note sets out measurements from the NIST ThermoML archive (doi:10.1016/j.tca.2013.04.011).

As usually defined, the speed of sound is how fast a sound wave travels through the sample. A word on the mass density: it is the mass of a sample divided by its volume.

`CCn1cc[n+](C)c1.F[B-](F)(F)F` [1-ethyl-3-methylimidazolium tetrafluoroborate]: the speed of sound runs as follows: (293.15 K) 1631 ± 2 m/s; (298.15 K) 1619.4 ± 2 m/s; (303.15 K) 1607.6 ± 2 m/s; (308.15 K) 1596.3 ± 2 m/s. Moreover, the mass density amounted to 1283.89 ± 1.9 kg/m3 (293.15 K), 1279.91 ± 1.9 kg/m3 (298.15 K), 1276.26 ± 1.9 kg/m3 (303.15 K) and 1272.07 ± 1.9 kg/m3 (308.15 K).

`O=C1CCCN1` [2-pyrrolidinone]: the speed of sound reads like this: (293.15 K) 1650.1 ± 1.1 m/s; (298.15 K) 1633.9 ± 1.1 m/s; (303.15 K) 1617.1 ± 1.1 m/s; (308.15 K) 1601.8 ± 1.1 m/s. Moreover, the mass density is recorded as 1111.28 ± 0.41 kg/m3 (293.15 K), 1107.15 ± 0.41 kg/m3 (298.15 K), 1103.02 ± 0.41 kg/m3 (303.15 K) and 1098.9 ± 0.4 kg/m3 (308.15 K).

For `CN1CCCC1=O` [N-methylpyrrolidone], the speed of sound came to 1565.5 ± 1.1 m/s (293.15 K), 1546 ± 1.1 m/s (298.15 K), 1527.2 ± 1.1 m/s (303.15 K) and 1507.4 ± 1.1 m/s (308.15 K). For the same compound, the mass density was determined as 1033.23 ± 0.33 kg/m3 (293.15 K), 1028.23 ± 0.33 kg/m3 (298.15 K), 1023.46 ± 0.32 kg/m3 (303.15 K) and 1018.66 ± 0.32 kg/m3 (308.15 K).
